This is an account of results in PMC3156385 (Chemical research in toxicology, 2011).

The conditions of data set [1]: rats; cited from earlier work.
Data set [2] has as its target T1, P450 1A1 (Homo sapiens, UniProt P04798).
T1 sequence (P04798 1-512): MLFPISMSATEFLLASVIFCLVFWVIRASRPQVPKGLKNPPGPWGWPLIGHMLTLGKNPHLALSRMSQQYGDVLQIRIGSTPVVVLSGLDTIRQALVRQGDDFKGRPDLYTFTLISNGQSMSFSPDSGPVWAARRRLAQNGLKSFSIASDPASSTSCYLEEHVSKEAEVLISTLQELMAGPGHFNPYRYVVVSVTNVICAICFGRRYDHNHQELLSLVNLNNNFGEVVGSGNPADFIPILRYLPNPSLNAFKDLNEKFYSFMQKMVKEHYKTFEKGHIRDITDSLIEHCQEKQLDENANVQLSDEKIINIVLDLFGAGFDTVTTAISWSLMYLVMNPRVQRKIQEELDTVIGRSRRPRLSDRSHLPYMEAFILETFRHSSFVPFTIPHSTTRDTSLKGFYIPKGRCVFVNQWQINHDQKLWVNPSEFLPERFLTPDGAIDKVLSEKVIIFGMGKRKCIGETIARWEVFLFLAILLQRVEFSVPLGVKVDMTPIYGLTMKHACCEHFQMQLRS
The data set is described as follows: Inhibition of P450 1A1-dependent EROD activity. It counts as biochemical.

Data set [3] concerns the target T2, P450 1A2 (Homo sapiens, UniProt P05177).
T2 sequence (P05177 1-516): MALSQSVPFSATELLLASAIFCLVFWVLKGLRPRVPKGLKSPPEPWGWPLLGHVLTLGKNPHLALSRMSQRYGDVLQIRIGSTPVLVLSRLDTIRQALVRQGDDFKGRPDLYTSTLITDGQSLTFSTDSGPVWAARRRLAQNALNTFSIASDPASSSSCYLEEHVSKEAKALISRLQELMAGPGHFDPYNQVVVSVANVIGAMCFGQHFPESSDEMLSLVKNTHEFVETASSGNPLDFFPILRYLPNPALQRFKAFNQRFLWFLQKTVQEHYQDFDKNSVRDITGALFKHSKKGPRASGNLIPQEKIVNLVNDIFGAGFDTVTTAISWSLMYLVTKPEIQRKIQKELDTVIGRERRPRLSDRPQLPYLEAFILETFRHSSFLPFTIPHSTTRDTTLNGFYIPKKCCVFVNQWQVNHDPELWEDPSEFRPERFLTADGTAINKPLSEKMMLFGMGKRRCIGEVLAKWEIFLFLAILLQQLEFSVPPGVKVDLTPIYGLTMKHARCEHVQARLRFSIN
Briefly: Inhibition of P450 1A2-dependent EROD activity. It counts as biochemical.

Data set [4] deals with T2, P450 1A2. The data set is described as follows: Spectral binding titration with purified recombinant P450 1A2. The conditions noted are these: for ΔAmax/Ks / ΔAmax: Reverse Type I binding, 1 µM P450; for ΔAmax: means ± SE.
Data set [5] deals with T3, P450 2A13 (Homo sapiens, UniProt Q16696).
T3 sequence (Q16696 1-494): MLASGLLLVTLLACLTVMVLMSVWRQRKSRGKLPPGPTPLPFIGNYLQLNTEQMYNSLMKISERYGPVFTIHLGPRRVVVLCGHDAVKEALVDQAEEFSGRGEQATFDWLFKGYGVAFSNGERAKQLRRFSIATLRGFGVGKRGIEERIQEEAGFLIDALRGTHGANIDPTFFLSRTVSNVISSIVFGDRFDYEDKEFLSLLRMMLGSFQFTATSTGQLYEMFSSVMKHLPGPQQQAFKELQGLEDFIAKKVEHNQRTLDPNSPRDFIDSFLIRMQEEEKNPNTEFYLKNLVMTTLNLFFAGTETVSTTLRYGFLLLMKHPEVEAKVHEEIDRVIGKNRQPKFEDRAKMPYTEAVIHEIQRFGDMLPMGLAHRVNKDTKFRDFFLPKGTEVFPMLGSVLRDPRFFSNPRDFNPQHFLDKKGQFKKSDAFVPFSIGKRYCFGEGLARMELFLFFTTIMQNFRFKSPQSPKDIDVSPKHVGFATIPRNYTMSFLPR
The data set is described as follows: Spectral binding titration with purified recombinant P450 2A13. To be noted: for ΔAmax/Ks / ΔAmax: Type I binding, 1 µM P450; for ΔAmax: means ± SE.

The target of data set [6] is T3, P450 2A13. Briefly: Inhibition of P450 2A13-dependent coumarin 7-hydroxylation. It counts as biochemical.
Data set [7] addresses T1, P450 1A1. The data set is described as follows: Spectral binding titration with purified recombinant P450 1A1. To be noted: for ΔAmax/Ks / ΔAmax: Reverse Type I binding, 1 µM P450; for ΔAmax: means ± SE.
The target in data set [8] is T4, P450 1B1 (Homo sapiens, UniProt Q16678).
T4 sequence (Q16678 1-543): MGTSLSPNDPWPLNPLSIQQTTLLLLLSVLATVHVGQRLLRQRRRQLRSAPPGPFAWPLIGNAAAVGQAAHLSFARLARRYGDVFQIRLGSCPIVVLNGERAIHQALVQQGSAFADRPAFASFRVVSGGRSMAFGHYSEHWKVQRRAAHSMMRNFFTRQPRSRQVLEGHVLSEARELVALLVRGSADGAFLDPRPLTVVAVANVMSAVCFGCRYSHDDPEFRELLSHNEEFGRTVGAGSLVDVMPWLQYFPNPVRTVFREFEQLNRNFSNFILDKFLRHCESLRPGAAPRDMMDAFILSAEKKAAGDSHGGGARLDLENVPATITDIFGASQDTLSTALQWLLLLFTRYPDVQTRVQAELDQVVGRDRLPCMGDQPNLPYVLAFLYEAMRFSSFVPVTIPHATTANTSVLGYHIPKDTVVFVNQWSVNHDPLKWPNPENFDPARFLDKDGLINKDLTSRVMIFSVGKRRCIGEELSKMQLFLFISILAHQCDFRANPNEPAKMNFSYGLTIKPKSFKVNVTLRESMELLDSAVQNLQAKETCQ
Briefly: Spectral binding titration with purified recombinant P450 1B1. The conditions noted are these: for ΔAmax/Ks / ΔAmax: Reverse Type I binding, 1 µM P450; for ΔAmax: means ± SE.

In data set [9] the target is T4, P450 1B1. Briefly: Inhibition of P450 1B1-dependent EROD activity. The class given is biochemical.
For data set [10], the target named is T5, P450 2A6 (Homo sapiens, UniProt P11509).
T5 sequence (P11509 1-494): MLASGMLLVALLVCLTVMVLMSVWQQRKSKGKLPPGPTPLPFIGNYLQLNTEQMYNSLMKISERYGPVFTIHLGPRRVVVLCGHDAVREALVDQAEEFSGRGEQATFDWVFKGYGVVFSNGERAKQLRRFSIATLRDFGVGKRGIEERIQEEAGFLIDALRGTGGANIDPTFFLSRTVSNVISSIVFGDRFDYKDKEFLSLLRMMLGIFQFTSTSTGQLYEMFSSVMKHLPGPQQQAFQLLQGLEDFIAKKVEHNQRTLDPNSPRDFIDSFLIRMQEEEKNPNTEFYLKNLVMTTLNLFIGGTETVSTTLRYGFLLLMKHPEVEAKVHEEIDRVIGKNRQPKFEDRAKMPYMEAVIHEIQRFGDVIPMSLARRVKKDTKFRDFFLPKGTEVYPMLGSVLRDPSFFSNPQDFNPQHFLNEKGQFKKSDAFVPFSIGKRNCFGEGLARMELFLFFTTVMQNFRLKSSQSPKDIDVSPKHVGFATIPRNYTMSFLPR
Briefly: Inhibition of P450 2A6-dependent coumarin 7-hydroxylation. It counts as biochemical.

For data set [11], the target named is T5, P450 2A6. Briefly: Spectral binding titration with purified recombinant P450 2A6. The conditions noted are these: for ΔAmax/Ks / ΔAmax: Type I binding, 1 µM P450; for ΔAmax: means ± SE.

On to `N#C[Se]Cc1ccc(C[Se]C#N)cc1` [p-[^14C]XSC, 1,4-[^14C]phenylenebis(methylene)selenocyanate], for which, in [1], the “cumulative percentage of radioactivity excreted in feces” value is on record as 75% and the “cumulative percentage of radioactivity excreted in urine” value is on record as 24%.
What is called IC50 is the point on the concentration scale where inhibition reaches its midpoint. Higher therefore signals weaker potency in that assay. The term Kd denotes a measure of binding affinity in units of concentration. For `N#C[Se]Cc1ccc(C[Se]C#N)cc1` [p-XSC, 1,4-phenylenebis(methylene)selenocyanate], the IC50 in [2] was 260 ± 31 nM; in [3], 630 ± 59 nM; in data set [6], 1400 ± 210 nM; in [9] it was 160 ± 9 nM; in data set [10] it was 6200 ± 550 nM. The Kd in [4] turned out to be 12000 ± 1200 nM; in data set [5] it was 1500 ± 280 nM; in data set [7], 19000 ± 1600 nM; in [8], 3600 ± 330 nM; in data set [11] it was 14000 ± 1900 nM. For the same molecule, the ΔAmax/Ks in data set [4] is 0.81 × 10^−3; in [5], 46.00 × 10^−3; in data set [7], 0.45 × 10^−3; in data set [8] it was 5.83 × 10^−3; in [11] it was 2.20 × 10^−3. The ΔAmax in [4] is listed as 9.7 ± 0.40 × 10^−3; in data set [5] it was 69 ± 2.6 × 10^−3; in data set [7], 8.6 ± 0.24 × 10^−3; in [8], 21 ± 0.48 × 10^−3; in data set [11], 31 ± 1.2 × 10^−3.
With `N#C[Se]Cc1ccccc1C[Se]C#N` [o-XSC, 1,2-phenylenebis(methylene)selenocyanate], the IC50 turned out to be 110 ± 21 nM in data set [2]; 390 ± 42 nM in [3]; 1200 ± 130 nM in data set [6]; 140 ± 27 nM in data set [9]; 2700 ± 340 nM in [10]. The ΔAmax/Ks in data set [4] is on record as 0.38 × 10^−3; in data set [5] it was 92.00 × 10^−3; in data set [7], 0.77 × 10^−3; in data set [8] it was 3.30 × 10^−3; in data set [11], 7.80 × 10^−3. Moreover, the ΔAmax in data set [4] is 2.4 ± 0.20 × 10^−3; in data set [5], 69 ± 0.49 × 10^−3; in data set [7], 20 ± 1.2 × 10^−3; in [8] it was 15 ± 0.51 × 10^−3; in data set [11], 40 ± 0.82 × 10^−3. In addition, the Kd in data set [5] was 750 ± 44 nM; in data set [7] it was 26000 ± 4600 nM; in data set [8], 4600 ± 750 nM; in data set [11], 5100 ± 450 nM.
